Laboratory results reported in ChEMBL document CHEMBL1201862, “PubChem BioAssay data set” (2004).
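Dose response: 5 concentrations. Exposure: 48 h. Format: 96-well plates. Endpoint: linear interpolation; highest concentration if not reached. Abbreviation: GI50, concentration required for 50% inhibition of growth.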 Active and inactive are the calls of the source. Cut-off read from the data, not from the text of the source: active = GI50 up to about 1.1 µM and inactive = higher.

Experiments:
Experiment in all cases: NCI anticancer screen, dose series, 48 h
786-0 = system: 786-0
A498 = system: A498
A549 = system: A549
ACHN = system: ACHN
CCRF-CEM = system: CCRF-CEM
DU-145 = system: DU-145
IGROV-1 = system: IGROV-1
M14 = system: M14
MDA-MB-435 = system: MDA-MB-435
Malme-3M = system: Malme-3M
NCI-H226 = system: NCI-H226
SK-MEL-28 = system: SK-MEL-28
SK-MEL-2 = system: SK-MEL-2
SK-MEL-5 = system: SK-MEL-5
SN12C = system: SN12C
SNB-19 = system: SNB-19
SW-620 = system: SW-620
T47D = system: T47D
UACC-62 = system: UACC-62

| SMILES | GI50 (786-0) | GI50 (A498) | GI50 (A549) | GI50 (ACHN) | GI50 (CCRF-CEM) | GI50 (DU-145) | GI50 (IGROV-1) | GI50 (M14) | GI50 (MDA-MB-435) | GI50 (Malme-3M) | GI50 (NCI-H226) | GI50 (SK-MEL-28) | GI50 (SK-MEL-2) | GI50 (SK-MEL-5) | GI50 (SN12C) | GI50 (SNB-19) | GI50 (SW-620) | GI50 (T47D) | GI50 (UACC-62) |
| --- | --- | --- | --- | --- | --- | --- | --- | --- | --- | --- | --- | --- | --- | --- | --- | --- | --- | --- | --- |
| CC(=O)c1ccc2c3c1[C@@H]1O[C@@H]1c1cccc(c1-3)[C@@H]1O[C@H]21 | 5.6 µM (inactive) | 21.5 µM (inactive) | 14.5 µM (inactive) | 21.6 µM (inactive) | 2.86 µM (inactive) | 8.39 µM (inactive) | 0.782 µM (active) | 6.85 µM (inactive) | 6.92 µM (inactive) | 7.4 µM (inactive) | 37.8 µM (inactive) | 3.5 µM (inactive) | 14.1 µM (inactive) | 11.7 µM (inactive) | 8.26 µM (inactive) | 20.3 µM (inactive) | 2.54 µM (inactive) | 6.76 µM (inactive) | 14 µM (inactive) |
| S=c1sc2c(s1)SCCCCSCCCCSc1sc(=S)sc1SCCCCSCCCCS2 | 68.5 µM (inactive) | > 100 µM (inactive) | > 100 µM (inactive) | > 100 µM (inactive) | > 100 µM (inactive) | > 100 µM (inactive) | > 100 µM (inactive) | > 100 µM (inactive) | > 100 µM (inactive) | > 100 µM (inactive) | > 100 µM (inactive) | > 100 µM (inactive) | > 100 µM (inactive) | > 100 µM (inactive) | > 100 µM (inactive) | > 100 µM (inactive) | > 100 µM (inactive) | > 100 µM (inactive) | > 100 µM (inactive) |
| NC(Cc1ccccc1)C(=O)N[C@H]1c2ccsc2/C(=N/O)[C@H]1O (stereo not given in full) |  | > 100 µM (inactive) | > 100 µM (inactive) |  | > 100 µM (inactive) | > 100 µM (inactive) | > 100 µM (inactive) | > 100 µM (inactive) | > 100 µM (inactive) | > 100 µM (inactive) | > 100 µM (inactive) | > 100 µM (inactive) | > 100 µM (inactive) | > 100 µM (inactive) | > 100 µM (inactive) |  | > 100 µM (inactive) | > 100 µM (inactive) | > 100 µM (inactive) |
| CNNC1=NS(=O)(=O)c2cc(C(=O)OC)c(Cl)cc2S1 | > 10 µM (inactive) | > 10 µM (inactive) | > 10 µM (inactive) | > 10 µM (inactive) | > 10 µM (inactive) | > 10 µM (inactive) | > 10 µM (inactive) | > 10 µM (inactive) | > 10 µM (inactive) | > 10 µM (inactive) | > 10 µM (inactive) | > 10 µM (inactive) | > 10 µM (inactive) | > 10 µM (inactive) | > 10 µM (inactive) | > 10 µM (inactive) | > 10 µM (inactive) | > 10 µM (inactive) | > 10 µM (inactive) |
| O=C(OCC(OC(=O)c1ccccc1)C(OC(=O)c1ccccc1)C(OC(=O)c1ccccc1)c1cnn(-c2ccccc2)n1)c1ccccc1 (stereo not given) | > 100 µM (inactive) | > 100 µM (inactive) | > 100 µM (inactive) | > 100 µM (inactive) | > 100 µM (inactive) | > 100 µM (inactive) | > 100 µM (inactive) | > 100 µM (inactive) | > 100 µM (inactive) | > 100 µM (inactive) | > 100 µM (inactive) | > 100 µM (inactive) |  | > 100 µM (inactive) | > 100 µM (inactive) | > 100 µM (inactive) | > 100 µM (inactive) | > 100 µM (inactive) | > 100 µM (inactive) |
| C/C(=N/NC(=S)N1CCCCCC1)c1ccccc1O | 1.89 µM (inactive) | 23.8 µM (inactive) | 6.05 µM (inactive) | 2.65 µM (inactive) | 0.792 µM (active) | 4.72 µM (inactive) | 3.72 µM (inactive) | 1.49 µM (inactive) | 5.82 µM (inactive) | 2.59 µM (inactive) | > 22 µM (inactive) | 8.36 µM (inactive) | 3.29 µM (inactive) | 4.05 µM (inactive) | 4.63 µM (inactive) | 42.2 µM (inactive) | 4.97 µM (inactive) | 7.6 µM (inactive) | 3.05 µM (inactive) |
| CC(=O)Oc1ccc(-c2nnc(-c3ccc(OC(C)=O)cc3)nn2)cc1 | > 100 µM (inactive) | > 100 µM (inactive) | > 100 µM (inactive) | 59 µM (inactive) | 40.6 µM (inactive) | > 100 µM (inactive) | > 100 µM (inactive) | > 100 µM (inactive) | > 100 µM (inactive) | > 100 µM (inactive) | > 100 µM (inactive) | > 100 µM (inactive) | > 100 µM (inactive) | > 100 µM (inactive) | > 100 µM (inactive) | > 100 µM (inactive) | > 100 µM (inactive) | > 100 µM (inactive) | > 100 µM (inactive) |
| COC(=O)C1CC(C=[N+](C)C)=C(SC)N1 (stereo not given) | > 100 µM (inactive) | > 100 µM (inactive) |  | > 100 µM (inactive) |  | > 100 µM (inactive) | > 100 µM (inactive) | > 100 µM (inactive) | > 100 µM (inactive) | > 100 µM (inactive) |  | > 100 µM (inactive) | > 100 µM (inactive) | > 100 µM (inactive) |  | > 100 µM (inactive) | > 100 µM (inactive) | > 100 µM (inactive) | > 100 µM (inactive) |
| Cc1ccc(S(=O)(=O)NNC(C[N+](=O)[O-])c2ccccc2)cc1 (stereo not given) | 22.6 µM (inactive) | 16.1 µM (inactive) | 16.7 µM (inactive) | 16.1 µM (inactive) | > 100 µM (inactive) | 44.5 µM (inactive) | 7.23 µM (inactive) | 5.65 µM (inactive) | 2.91 µM (inactive) | 29 µM (inactive) | 26.3 µM (inactive) |  | 34.2 µM (inactive) | 19.4 µM (inactive) | 32 µM (inactive) | 7.14 µM (inactive) | 11.5 µM (inactive) | 10.9 µM (inactive) | 26.1 µM (inactive) |
| C=CCN1C[C@H](C)N([C@H](c2ccc(C(=O)N(CC)CC)cc2)c2cccc(OC)c2)C[C@H]1C [SNC-80] | > 100 µM (inactive) | 13 µM (inactive) | 54.3 µM (inactive) | 35.6 µM (inactive) |  | > 100 µM (inactive) | 35.2 µM (inactive) | 33.7 µM (inactive) | 34.7 µM (inactive) | 16.7 µM (inactive) | 21.4 µM (inactive) | 69.3 µM (inactive) | > 100 µM (inactive) | 14 µM (inactive) | 64.1 µM (inactive) | > 100 µM (inactive) | 44.6 µM (inactive) | 17 µM (inactive) | 34.1 µM (inactive) |
| COc1ccc(Cc2nc3cc([N+](=O)[O-])ccc3n2C[C@@H]2CCCN3CCCCC23)cc1 (stereo not given in full) | 18.6 µM (inactive) | 16.6 µM (inactive) | 15.8 µM (inactive) | 33.2 µM (inactive) | 11.2 µM (inactive) | 37.9 µM (inactive) | 17.7 µM (inactive) | 14.2 µM (inactive) | 18.6 µM (inactive) | 16.7 µM (inactive) | 31.6 µM (inactive) | 17.7 µM (inactive) | 17.7 µM (inactive) | 14.8 µM (inactive) |  | 19.8 µM (inactive) | 26 µM (inactive) | 33.1 µM (inactive) | 17.3 µM (inactive) |
| Cc1ccc(S(=O)ON2CCC(C(=O)O)(c3ccccc3)CC2)cc1 (stereo not given) | 0.0773 µM (active) | > 100 µM (inactive) | > 100 µM (inactive) | > 100 µM (inactive) | > 100 µM (inactive) | > 100 µM (inactive) | > 100 µM (inactive) | > 100 µM (inactive) | > 100 µM (inactive) | > 100 µM (inactive) | > 100 µM (inactive) | > 100 µM (inactive) |  | > 100 µM (inactive) | > 100 µM (inactive) | > 100 µM (inactive) | > 100 µM (inactive) | > 100 µM (inactive) | > 100 µM (inactive) |
| Nc1c(-c2nc3ccccc3o2)sc(=S)n1-c1ccc(Cl)cc1 | 8.57 µM (inactive) | 37.7 µM (inactive) | 13.2 µM (inactive) | 9.1 µM (inactive) | > 100 µM (inactive) | 12 µM (inactive) | 17.7 µM (inactive) | 15.4 µM (inactive) | 17.3 µM (inactive) | 19.1 µM (inactive) | 13.9 µM (inactive) | 13.9 µM (inactive) | 11.2 µM (inactive) | 17.2 µM (inactive) | 51.8 µM (inactive) | 13.7 µM (inactive) |  | 2.58 µM (inactive) | 0.452 µM (active) |
| O=P(Oc1ccc(Cl)cc1)(Oc1ccc(Cl)cc1)N1CC1 | > 10 µM (inactive) | > 10 µM (inactive) | > 10 µM (inactive) | > 10 µM (inactive) | 0.174 µM (active) | > 10 µM (inactive) |  | > 10 µM (inactive) | > 10 µM (inactive) | > 10 µM (inactive) | > 10 µM (inactive) | > 10 µM (inactive) | > 10 µM (inactive) | > 10 µM (inactive) | > 10 µM (inactive) | > 10 µM (inactive) | > 10 µM (inactive) | > 10 µM (inactive) | > 10 µM (inactive) |
| Nc1nc(-c2ccccc2)nc2oc(-c3cccs3)nc12 | > 100 µM (inactive) | > 100 µM (inactive) | > 100 µM (inactive) | > 100 µM (inactive) | > 100 µM (inactive) | > 100 µM (inactive) | > 100 µM (inactive) | > 100 µM (inactive) | > 100 µM (inactive) |  | > 100 µM (inactive) | > 100 µM (inactive) | > 100 µM (inactive) | > 100 µM (inactive) | > 100 µM (inactive) | > 100 µM (inactive) | > 100 µM (inactive) | > 100 µM (inactive) | > 100 µM (inactive) |
